In paper PMC5762315, “Inhibition of polo-like kinase 4 (PLK4): a new therapeutic option for rhabdoid tumors and pediatric medulloblastoma” (Oncotarget, 2017):
“And” between values parts separate entries of the source, which are not always exact repeats. Identical values can stand only once.

Experiments:
Experiment in all cases: biochemical
Assay type in all cases: biochemical
various kinases [1] = biological target: various kinases (Homo sapiens, UniProt P00519, G250E); details: ABL1 G250E
various kinases [2] = biological target: various kinases (Homo sapiens, UniProt P36888); details: FLT3
various kinases [3] = biological target: various kinases (Homo sapiens, UniProt Q9UM73); details: ALK
various kinases [4] = biological target: various kinases (Homo sapiens, UniProt O76039); details: CDKL5
various kinases [5] = biological target: T1, various kinases (Homo sapiens, UniProt P41743); details: kinase PRKCI (PKC iota); ZLYTE
T1 sequence (P41743 1-596): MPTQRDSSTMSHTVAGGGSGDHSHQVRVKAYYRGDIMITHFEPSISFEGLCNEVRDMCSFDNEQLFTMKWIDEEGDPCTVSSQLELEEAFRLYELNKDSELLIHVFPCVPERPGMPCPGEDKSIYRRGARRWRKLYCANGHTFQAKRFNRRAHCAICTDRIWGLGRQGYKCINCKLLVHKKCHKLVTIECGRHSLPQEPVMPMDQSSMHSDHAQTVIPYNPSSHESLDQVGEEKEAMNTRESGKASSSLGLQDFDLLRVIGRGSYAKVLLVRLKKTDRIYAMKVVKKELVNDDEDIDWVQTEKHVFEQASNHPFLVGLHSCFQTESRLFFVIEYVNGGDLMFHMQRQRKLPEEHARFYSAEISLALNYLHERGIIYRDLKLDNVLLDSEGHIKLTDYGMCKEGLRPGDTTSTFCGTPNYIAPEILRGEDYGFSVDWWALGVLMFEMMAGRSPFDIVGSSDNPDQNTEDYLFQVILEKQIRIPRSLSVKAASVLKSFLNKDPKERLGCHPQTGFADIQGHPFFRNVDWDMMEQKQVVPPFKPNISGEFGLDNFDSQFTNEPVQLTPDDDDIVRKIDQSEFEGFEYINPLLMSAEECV

various kinases [6] = biological target: various kinases (Homo sapiens, UniProt Q9P286); details: PAK7 (KIAA1264)
various kinases [7] = biological target: various kinases (Homo sapiens, UniProt Q16566); details: CAMK4 (CaMKIV)
various kinases [8] = biological target: various kinases (Homo sapiens, UniProt P07949, Y791F); details: kinase RET Y791F; ZLYTE
various kinases [9] = biological target: T2, various kinases (Homo sapiens, UniProt P51817); details: kinase PRKX; ZLYTE
T2 sequence (P51817 1-358): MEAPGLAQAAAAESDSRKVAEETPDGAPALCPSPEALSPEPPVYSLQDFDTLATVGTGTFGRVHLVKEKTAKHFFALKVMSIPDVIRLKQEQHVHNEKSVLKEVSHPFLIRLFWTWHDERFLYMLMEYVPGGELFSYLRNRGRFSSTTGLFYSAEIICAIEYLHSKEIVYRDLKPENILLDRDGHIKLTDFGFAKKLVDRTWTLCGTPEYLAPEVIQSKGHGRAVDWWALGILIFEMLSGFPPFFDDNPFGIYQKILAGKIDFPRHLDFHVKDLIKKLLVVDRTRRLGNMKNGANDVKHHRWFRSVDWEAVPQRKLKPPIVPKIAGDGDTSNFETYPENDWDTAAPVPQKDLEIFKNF

various kinases [10] = biological target: various kinases (Homo sapiens, UniProt Q8WTQ7); details: GRK7
various kinases [11] = biological target: various kinases (Homo sapiens, UniProt Q96NX5); details: CAMK1G (CAMKI gamma)
various kinases [12] = biological target: various kinases (Homo sapiens, UniProt P30530); details: AXL
various kinases [13] = biological target: various kinases (Homo sapiens, UniProt P54762); details: EPHB1
various kinases [14] = biological target: various kinases (Homo sapiens, UniProt Q9P1W9); details: PIM2
various kinases [15] = biological target: various kinases (Homo sapiens, UniProt P00533, C797S/L858R/T790M); details: EGFR (ErbB1) T790M C797S L858R
various kinases [16] = biological target: various kinases (Homo sapiens, UniProt O15075); details: DCAMKL1 (DCLK1)
various kinases [17] = biological target: various kinases (Homo sapiens, UniProt Q13177); details: PAK2 (PAK65)
various kinases [18] = biological target: various kinases (Homo sapiens, UniProt P49674); details: CSNK1E (CK1 epsilon)
various kinases [19] = biological target: various kinases (Homo sapiens, UniProt Q13153); details: PAK1
various kinases [20] = biological target: various kinases (Homo sapiens, UniProt P00533, T790M); details: EGFR (ErbB1) T790M
various kinases [21] = biological target: various kinases (Homo sapiens, UniProt Q15759); details: MAPK11 (p38 beta)
various kinases [22] = biological target: various kinases (Homo sapiens, UniProt P11362); details: FGFR1
various kinases [23] = biological target: various kinases (Homo sapiens, UniProt Q9NQU5); details: PAK6
various kinases [24] = biological target: various kinases (Homo sapiens, UniProt P49841); details: GSK3B (GSK3 beta)
various kinases [25] = biological target: various kinases (Homo sapiens, UniProt Q13131)
various kinases [26] = biological target: various kinases (Homo sapiens, UniProt P29376); details: LTK (TYK1)
various kinases [27] = biological target: various kinases (Homo sapiens, UniProt O96017); details: CHEK2 (CHK2)

various kinases (Homo sapiens, UniProt Q13131), sequence (Q13131 whole entry): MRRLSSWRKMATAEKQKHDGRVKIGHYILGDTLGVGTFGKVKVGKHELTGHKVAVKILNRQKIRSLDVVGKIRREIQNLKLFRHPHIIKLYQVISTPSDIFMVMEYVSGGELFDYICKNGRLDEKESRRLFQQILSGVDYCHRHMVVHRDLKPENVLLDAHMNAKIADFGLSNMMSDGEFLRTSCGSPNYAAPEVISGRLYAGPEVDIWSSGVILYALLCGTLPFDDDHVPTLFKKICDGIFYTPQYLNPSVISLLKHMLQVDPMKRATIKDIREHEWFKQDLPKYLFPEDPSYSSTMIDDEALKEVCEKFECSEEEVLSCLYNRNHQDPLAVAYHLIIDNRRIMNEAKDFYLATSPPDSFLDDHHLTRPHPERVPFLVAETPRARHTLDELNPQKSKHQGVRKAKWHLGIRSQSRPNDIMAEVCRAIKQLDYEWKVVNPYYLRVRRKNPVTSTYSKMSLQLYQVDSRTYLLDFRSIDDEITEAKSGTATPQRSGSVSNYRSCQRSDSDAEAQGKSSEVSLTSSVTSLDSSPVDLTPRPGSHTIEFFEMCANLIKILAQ
various kinases (Homo sapiens, UniProt P07949, Y791F), sequence (P07949 29-1114 Y791F): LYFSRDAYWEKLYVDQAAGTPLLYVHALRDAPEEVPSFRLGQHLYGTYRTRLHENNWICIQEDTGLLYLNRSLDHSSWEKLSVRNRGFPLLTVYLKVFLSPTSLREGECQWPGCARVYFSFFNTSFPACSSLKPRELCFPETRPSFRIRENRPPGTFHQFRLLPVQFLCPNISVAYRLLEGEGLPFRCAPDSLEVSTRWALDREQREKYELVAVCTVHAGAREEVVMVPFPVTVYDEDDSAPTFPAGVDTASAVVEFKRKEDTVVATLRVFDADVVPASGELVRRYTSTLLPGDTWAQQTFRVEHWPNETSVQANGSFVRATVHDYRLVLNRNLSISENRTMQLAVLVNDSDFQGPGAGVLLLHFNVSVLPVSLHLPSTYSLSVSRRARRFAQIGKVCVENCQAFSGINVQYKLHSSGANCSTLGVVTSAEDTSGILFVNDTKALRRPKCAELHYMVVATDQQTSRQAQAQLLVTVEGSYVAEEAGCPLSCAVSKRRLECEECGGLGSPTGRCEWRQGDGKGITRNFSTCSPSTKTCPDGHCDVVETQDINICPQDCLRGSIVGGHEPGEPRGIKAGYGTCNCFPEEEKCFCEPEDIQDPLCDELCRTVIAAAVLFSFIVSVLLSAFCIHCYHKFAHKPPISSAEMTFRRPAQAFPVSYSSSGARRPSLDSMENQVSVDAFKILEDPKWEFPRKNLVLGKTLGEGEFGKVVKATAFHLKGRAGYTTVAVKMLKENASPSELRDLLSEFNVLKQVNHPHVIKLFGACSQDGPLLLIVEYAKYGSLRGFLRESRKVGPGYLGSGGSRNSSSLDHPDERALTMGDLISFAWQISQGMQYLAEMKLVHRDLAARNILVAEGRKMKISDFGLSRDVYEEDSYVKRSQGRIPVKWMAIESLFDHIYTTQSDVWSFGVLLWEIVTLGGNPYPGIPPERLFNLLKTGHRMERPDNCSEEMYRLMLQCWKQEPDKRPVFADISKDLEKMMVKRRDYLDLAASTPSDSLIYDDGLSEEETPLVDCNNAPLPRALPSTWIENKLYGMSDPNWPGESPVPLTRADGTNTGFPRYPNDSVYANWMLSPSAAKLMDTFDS
various kinases (Homo sapiens, UniProt Q9P286), sequence (Q9P286 whole entry): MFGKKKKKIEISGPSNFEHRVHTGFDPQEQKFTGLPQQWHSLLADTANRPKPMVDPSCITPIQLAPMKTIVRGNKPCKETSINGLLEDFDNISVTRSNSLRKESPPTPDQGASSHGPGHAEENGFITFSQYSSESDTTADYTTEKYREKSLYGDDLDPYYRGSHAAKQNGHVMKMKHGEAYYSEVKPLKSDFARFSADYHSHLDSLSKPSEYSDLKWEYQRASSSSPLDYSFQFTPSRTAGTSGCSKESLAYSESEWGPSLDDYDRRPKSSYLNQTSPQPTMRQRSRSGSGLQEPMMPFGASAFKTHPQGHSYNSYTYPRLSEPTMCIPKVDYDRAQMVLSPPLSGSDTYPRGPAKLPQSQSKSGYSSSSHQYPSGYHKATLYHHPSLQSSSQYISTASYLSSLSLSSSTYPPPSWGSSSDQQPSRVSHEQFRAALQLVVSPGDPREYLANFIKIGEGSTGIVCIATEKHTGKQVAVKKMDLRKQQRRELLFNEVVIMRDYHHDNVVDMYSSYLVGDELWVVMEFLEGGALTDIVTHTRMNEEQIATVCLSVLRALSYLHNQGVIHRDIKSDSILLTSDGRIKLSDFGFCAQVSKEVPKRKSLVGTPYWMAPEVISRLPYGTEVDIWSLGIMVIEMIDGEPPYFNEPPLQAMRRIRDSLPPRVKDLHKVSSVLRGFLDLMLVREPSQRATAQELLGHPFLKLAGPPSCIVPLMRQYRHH
various kinases (Homo sapiens, UniProt P49841), sequence (P49841 whole entry): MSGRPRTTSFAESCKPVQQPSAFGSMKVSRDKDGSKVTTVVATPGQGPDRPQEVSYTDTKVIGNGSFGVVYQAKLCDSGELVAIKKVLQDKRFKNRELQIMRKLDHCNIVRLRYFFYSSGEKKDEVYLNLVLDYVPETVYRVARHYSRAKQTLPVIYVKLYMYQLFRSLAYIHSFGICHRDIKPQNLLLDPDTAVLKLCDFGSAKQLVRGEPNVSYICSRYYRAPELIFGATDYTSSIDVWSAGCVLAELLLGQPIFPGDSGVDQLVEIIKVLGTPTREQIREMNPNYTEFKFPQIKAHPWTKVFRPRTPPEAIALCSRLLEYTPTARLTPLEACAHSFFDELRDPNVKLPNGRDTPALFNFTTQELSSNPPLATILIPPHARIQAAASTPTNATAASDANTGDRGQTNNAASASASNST
various kinases (Homo sapiens, UniProt Q96NX5), sequence (Q96NX5 whole entry): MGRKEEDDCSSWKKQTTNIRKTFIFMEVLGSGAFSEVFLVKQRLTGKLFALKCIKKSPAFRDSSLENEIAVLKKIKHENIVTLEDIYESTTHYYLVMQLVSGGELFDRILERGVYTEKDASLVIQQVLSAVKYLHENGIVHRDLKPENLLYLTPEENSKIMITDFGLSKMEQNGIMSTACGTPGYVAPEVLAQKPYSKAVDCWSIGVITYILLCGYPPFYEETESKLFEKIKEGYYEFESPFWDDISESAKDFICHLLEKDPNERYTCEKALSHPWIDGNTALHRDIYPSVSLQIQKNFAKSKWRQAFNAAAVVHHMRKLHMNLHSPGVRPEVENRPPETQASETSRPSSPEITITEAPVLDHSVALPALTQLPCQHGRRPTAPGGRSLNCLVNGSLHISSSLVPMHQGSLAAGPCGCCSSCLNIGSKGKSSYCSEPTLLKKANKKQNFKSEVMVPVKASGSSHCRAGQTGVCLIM
various kinases (Homo sapiens, UniProt Q13153), sequence (Q13153 whole entry): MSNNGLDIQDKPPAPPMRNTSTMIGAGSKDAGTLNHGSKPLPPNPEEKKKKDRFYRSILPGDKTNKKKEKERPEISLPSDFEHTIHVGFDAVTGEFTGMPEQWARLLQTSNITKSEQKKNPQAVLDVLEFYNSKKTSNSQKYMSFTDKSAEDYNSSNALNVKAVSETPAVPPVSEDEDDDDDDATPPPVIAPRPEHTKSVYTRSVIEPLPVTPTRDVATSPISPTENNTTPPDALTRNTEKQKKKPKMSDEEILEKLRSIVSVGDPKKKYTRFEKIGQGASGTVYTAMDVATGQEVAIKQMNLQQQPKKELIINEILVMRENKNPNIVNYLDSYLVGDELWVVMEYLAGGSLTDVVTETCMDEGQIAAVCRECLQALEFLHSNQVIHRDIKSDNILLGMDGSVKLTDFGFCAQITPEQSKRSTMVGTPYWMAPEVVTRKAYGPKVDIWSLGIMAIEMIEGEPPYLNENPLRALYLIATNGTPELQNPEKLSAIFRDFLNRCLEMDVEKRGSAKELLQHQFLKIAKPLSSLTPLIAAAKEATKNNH
various kinases (Homo sapiens, UniProt P36888), sequence (P36888 27-993): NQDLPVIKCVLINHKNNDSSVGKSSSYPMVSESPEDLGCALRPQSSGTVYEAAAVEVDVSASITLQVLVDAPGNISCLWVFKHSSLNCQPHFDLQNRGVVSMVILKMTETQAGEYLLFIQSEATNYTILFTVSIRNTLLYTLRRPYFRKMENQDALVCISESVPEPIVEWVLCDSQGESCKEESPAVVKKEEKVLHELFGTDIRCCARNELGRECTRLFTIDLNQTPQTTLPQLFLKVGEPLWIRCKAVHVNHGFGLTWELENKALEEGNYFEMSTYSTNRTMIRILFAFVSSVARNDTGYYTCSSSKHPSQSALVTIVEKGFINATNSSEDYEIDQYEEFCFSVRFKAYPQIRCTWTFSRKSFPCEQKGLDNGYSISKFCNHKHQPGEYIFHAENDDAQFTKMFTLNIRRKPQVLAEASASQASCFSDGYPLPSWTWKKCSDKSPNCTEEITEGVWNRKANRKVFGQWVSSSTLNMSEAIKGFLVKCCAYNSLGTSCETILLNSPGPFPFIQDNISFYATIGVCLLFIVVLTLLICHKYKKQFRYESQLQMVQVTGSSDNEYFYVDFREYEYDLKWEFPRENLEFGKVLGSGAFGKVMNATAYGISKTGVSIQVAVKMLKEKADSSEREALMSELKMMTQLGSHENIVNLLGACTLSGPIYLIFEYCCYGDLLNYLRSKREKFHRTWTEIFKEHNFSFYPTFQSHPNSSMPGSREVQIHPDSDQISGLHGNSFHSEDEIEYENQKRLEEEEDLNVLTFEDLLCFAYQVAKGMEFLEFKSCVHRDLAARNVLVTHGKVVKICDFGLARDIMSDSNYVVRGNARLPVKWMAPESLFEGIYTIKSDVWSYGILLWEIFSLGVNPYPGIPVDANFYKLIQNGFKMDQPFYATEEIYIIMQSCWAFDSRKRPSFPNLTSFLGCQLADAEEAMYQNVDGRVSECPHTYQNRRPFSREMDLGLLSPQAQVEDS

COc1ccc2c(c1)[C@]1(C[C@H]1c1ccc3c(/C=C/c4ccc(CN5C[C@@H](C)O[C@@H](C)C5)cc4)n[nH]c3c1)C(=O)N2 [CFI-400945]
% Inhibition (various kinases [1]): 45% and 42% | % Inhibition (various kinases [2]): 74% | IC50 (various kinases [2]): 59.7 nM | % Inhibition (various kinases [3]): 51% | % Inhibition (various kinases [4]): 5% | % Inhibition Average (various kinases [5]): 6% | % Inhibition Duplicate #1 (various kinases [5]): 0% | % Inhibition Duplicate #2 (various kinases [5]): 11% | % Inhibition (various kinases [6]): 9% and 13% | % Inhibition (various kinases [7]): 7% and -3% | % Inhibition Average (various kinases [8]): 14% | % Inhibition Duplicate #1 (various kinases [8]): 13% | % Inhibition Duplicate #2 (various kinases [8]): 14% | % Inhibition Average (various kinases [9]): 5% | % Inhibition Duplicate #1 (various kinases [9]): 6% | % Inhibition Duplicate #2 (various kinases [9]): 4% | % Inhibition (various kinases [10]): 13% and 12% | % Inhibition (various kinases [11]): -3% and 2% | % Inhibition (various kinases [12]): 10% and 11% | % Inhibition (various kinases [13]): 11% and 16% | % Inhibition (various kinases [14]): 8% and 9% | % Inhibition (various kinases [15]): 8% and 5% | % Inhibition (various kinases [16]): -2% | % Inhibition (various kinases [17]): 17% and 8% | % Inhibition (various kinases [18]): 7% and 6% | % Inhibition (various kinases [19]): 11% and 6% | % Inhibition (various kinases [20]): 3% | % Inhibition (various kinases [21]): 2% and 5% | % Inhibition (various kinases [22]): 59% and 55% | % Inhibition (various kinases [23]): 12% and 7% | % Inhibition (various kinases [24]): 7% and 6% | % Inhibition (various kinases [25]; AMPK (A1/B2/G2)): 25% and 20% | % Inhibition (various kinases [25]; AMPK (A1/B2/G3)): 13% and 21% | % Inhibition (various kinases [25]; AMPK A1/B1/G1): 14% and 9% | % Inhibition (various kinases [26]): 68% | % Inhibition (various kinases [27]): 3% and 2%
